Source: patent US11524966B1 (Valo Early Discovery, Inc., priority 2017, dated 2022)

molecular target: T1, USP25 (USP25-His6, Boston Biochem E-546) (Homo sapiens, UniProt Q9UHP3); assay: Ubiquitin-Rhodamine 110 Assay for USP25 Activity, Example A-2; assay type: biochemical; settings: Ub-Rh110 assay, Example A-2; read-out: USP25 A-2 IC50 range
T1 construct: His6; purchased Boston Biochem E-546
T1 sequence (Q9UHP3 1-1055): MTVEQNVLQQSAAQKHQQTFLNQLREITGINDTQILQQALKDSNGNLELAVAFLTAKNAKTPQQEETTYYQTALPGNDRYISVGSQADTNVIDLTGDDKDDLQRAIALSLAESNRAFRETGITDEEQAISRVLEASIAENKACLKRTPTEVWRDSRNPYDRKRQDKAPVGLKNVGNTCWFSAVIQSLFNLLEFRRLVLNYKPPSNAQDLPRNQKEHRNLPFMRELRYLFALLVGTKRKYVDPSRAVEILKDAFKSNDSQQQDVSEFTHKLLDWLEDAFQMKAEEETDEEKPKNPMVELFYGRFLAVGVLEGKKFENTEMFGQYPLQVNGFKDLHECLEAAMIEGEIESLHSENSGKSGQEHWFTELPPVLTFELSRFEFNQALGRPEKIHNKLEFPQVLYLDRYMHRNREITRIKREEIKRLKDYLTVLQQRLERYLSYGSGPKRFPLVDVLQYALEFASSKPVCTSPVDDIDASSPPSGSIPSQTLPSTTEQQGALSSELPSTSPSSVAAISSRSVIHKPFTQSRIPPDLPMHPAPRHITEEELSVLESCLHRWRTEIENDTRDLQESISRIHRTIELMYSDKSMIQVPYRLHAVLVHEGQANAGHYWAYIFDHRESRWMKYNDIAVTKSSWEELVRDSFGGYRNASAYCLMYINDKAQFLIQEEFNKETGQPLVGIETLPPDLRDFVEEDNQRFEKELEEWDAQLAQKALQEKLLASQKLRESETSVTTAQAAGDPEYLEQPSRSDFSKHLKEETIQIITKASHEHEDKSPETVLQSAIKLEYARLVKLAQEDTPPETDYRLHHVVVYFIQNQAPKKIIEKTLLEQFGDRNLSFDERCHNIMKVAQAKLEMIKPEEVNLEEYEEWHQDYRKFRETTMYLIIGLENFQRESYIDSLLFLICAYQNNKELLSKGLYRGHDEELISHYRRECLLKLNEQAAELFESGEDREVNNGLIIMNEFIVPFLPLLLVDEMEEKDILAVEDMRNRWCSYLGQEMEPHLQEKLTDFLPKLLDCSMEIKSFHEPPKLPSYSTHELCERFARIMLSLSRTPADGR
In short: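 USP25-His6 (75 pM) was preincubated with compound (10-point, 3-fold series, 25 μM to 1.3 nM) for 30 min in 20 mM Tris-HCl pH 8.0, 3 mM BME, 0.03% BGG, 0.01% Triton X-100. Ub-Rh110 (25 nM, <<Km) was then added for 45 min at room temperature, citric acid-stopped, and fluorescence read at 485/535 nm.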

`Cc1ccc2c(N)c(C(=O)N[C@H]3COc4cc(N5CCN[C@@H](C)[C@H]5C)ccc4C3)sc2n1` (single isomer, unassigned) [Example 1-7] gave an IC50 of 1 to 50 nM.

same assay, conditions: Ubiquitin-Rhodamine 110 assay, format Example A-2; read-out: USP25 A-2 IC50 range

First: Cc1nc2sc(C(=O)N[C@H]3CCc4cc(N5CCNCC5)ccc4C3)c(N)c2s1 (single isomer, unassigned) [Example 11-33]
Second: Cc1nc2sc(C(=O)N[C@@H]3CCc4cc(N5CC6CCC(C5)N6)ccc4C3)c(N)c2s1 (single isomer, unassigned) [Example 12-2]
The IC50 of the first is higher: greater than 2000 nM for the first, 200 to 2000 nM for the second. The second is the more potent here.

First: Cc1ccc2c(N)c(C(=O)N[C@@H]3CCc4c(ccc(N5CC6CCC(C5)N6)c4C#N)C3)sc2n1 (single isomer, unassigned) [Example 14-1]
Second: Cc1ccc2c(N)c(C(=O)N[C@H]3CCc4c(ccc(N5CC6CCC(C5)N6)c4C#N)C3)sc2n1 (single isomer, unassigned) [Example 14-2]
The IC50 of the first is lower: 50 to 200 nM for the first, greater than 2000 nM for the second.

Compared with `Cc1ccc2c(N)c(C(=O)N[C@@H]3CCc4cc(N5CC6CCC(C5)N6)c(C#N)cc4C3)sc2n1` (single isomer, unassigned) [Example 14-3], `Cc1ccc2c(N)c(C(=O)N[C@H]3CCc4cc(N5CC6CCC(C5)N6)c(C#N)cc4C3)sc2n1` (single isomer, unassigned) [Example 14-4] is lower in IC50: greater than 2000 nM for the first, 50 to 200 nM for the second.

Compared with `Cc1cnc2c(N)c(C(=O)N[C@@H]3CCc4c(ccc(N5CC6CCC(C5)N6)c4C#N)C3)sc2n1` (single isomer, unassigned) [Example 14-5], `Cc1cnc2c(N)c(C(=O)N[C@H]3CCc4c(ccc(N5CC6CCC(C5)N6)c4C#N)C3)sc2n1` (single isomer, unassigned) [Example 14-6] is higher in IC50: 50 to 200 nM for the first, greater than 2000 nM for the second. The first is the more potent here.

First: Cc1cnc2c(N)c(C(=O)N[C@@H]3CCc4cc(N5CC6CCC(C5)N6)c(C#N)cc4C3)sc2n1 (single isomer, unassigned) [Example 14-7]
Second: Cc1cnc2c(N)c(C(=O)N[C@H]3CCc4cc(N5CC6CCC(C5)N6)c(C#N)cc4C3)sc2n1 (single isomer, unassigned) [Example 14-8]
The IC50 of the first is higher: greater than 2000 nM for the first, 50 to 200 nM for the second. The second is the more potent here.
